{
  "source": "patent US20040192715A1",
  "about": "“Methods of administering opioid antagonists and compositions thereof” (priority 2003, published 2004)",
  "origin": "cited, not measured here",
  "key": {"mice": {"tested_on": "mice", "conditions": "parenteral administration to mice"}, "[1]": {"conditions": "oral administration"}},
  "data": [
    {"smiles": "O=C1CC[C@@]2(O)[C@H]3Cc4ccc(O)c5c4[C@@]2(CCN3CC2CC2)C1O5", "note": "(stereo partly drawn) [naltrexone, 17-(cyclopropylmethyl) -4,5-epoxy-3,14-dihydroxymorphinan-6-one]", "values": [
      {"measurement": "analgesia", "setting": "mice", "result": "produce analgesia"},
      {"measurement": "oral bioavailability", "setting": "[1]", "result": "5-40%"},
      {"measurement": "protein binding", "result": "approximately 21%"}
    ]}
  ]
}
